Test results from patent US4468511A, “C-20- And C-23-Modified macrolide derivatives” (Eli Lilly and Company, priority 1983, dated 1984).
≈ marks a conversion by molar mass, not a printed value. Read-outs that look alike come from different tables or passages of the source.

What was measured:
Type in all cases: cell-based
Escherichia coli EC14 = test: MIC, standard agar-dilution assay; settings: agar-dilution; Escherichia coli EC14; read-out: MIC
Protocol: (§1) Certain of the derivatives are active against some gram-negative bacteria, such as Pasteurella species. The MIC's in Table II were determined by standard agar-dilution assays. The MIC's in Table III were obtained using a conventional broth-dilution microtiter test.

Escherichia coli TEM = test: MIC, standard agar-dilution assay; settings: agar-dilution; Escherichia coli TEM; read-out: MIC
Protocol: as §1

[1] = test system: Klebsiella pneumoniae KAE; test: MIC, standard agar-dilution assay; settings: agar-dilution; Klebsiella pneumoniae KAE; read-out: MIC
Protocol: as §1

[2] = test system: Klebsiella pneumoniae X26; test: MIC, standard agar-dilution assay; settings: agar-dilution; Klebsiella pneumoniae X26; read-out: MIC
Protocol: as §1

[3] = test system: Staphylococcus aureus V41; test: MIC, standard agar-dilution assay
Protocol: as §1

[4] = test system: Staphylococcus aureus X1.1; test: MIC, standard agar-dilution assay; settings: Staphylococcus aureus, X1.1
Protocol: as §1

[5] = test system: Streptococcus Group D X66; test: MIC, standard agar-dilution assay; settings: agar-dilution; Streptococcus Group D X66; read-out: MIC
Protocol: as §1

[6] = test system: Streptococcus pneumoniae Park I; test: MIC, standard agar-dilution assay
Protocol: as §1

[7] = test system: Streptococcus pyogenes 9960; test: MIC, standard agar-dilution assay; settings: agar-dilution, Streptococcus 9960, read-out: MIC
Protocol: as §1

[8] = test system: Streptococcus pyogenes C203; test: MIC, standard agar-dilution assay
Protocol: as §1

[9] = test system: Haemophilus influenzae 76; test: MIC, standard agar-dilution assay; settings: agar-dilution; Haemophilus influenzae 76, Ampicillin-resistant strain; read-out: MIC
Protocol: (§2) The MIC's in Table II were determined by standard agar-dilution assays. The MIC's in Table III were obtained using a conventional broth-dilution microtiter test.

[10] = test system: Haemophilus influenzae C.L.; test: MIC, standard agar-dilution assay; settings: agar-dilution; Haemophilus influenzae C.L., Ampicillin-sensitive strain; read-out: MIC
Protocol: as §2

[11] = test system: Staphylococcus aureus X400; test: MIC, standard agar-dilution assay
Protocol: as §2

[12] = test system: Staphylococcus epidermidis EPI2; test: MIC, standard agar-dilution assay; settings: agar-dilution; Staphylococcus epidermidis EPI2; read-out: MIC
Protocol: as §2

[13] = test system: Staphylococcus aureus S13E; test: microbe, parasite or virus in culture
Protocol: as §2

[14] = test system: Staphylococcus epidermidis EPI1; test: microbe, parasite or virus in culture
Protocol: as §2

[15] = test system: Mycoplasma gallisepticum 34159; test: MIC, conventional broth-dilution microtiter test; settings: Mycoplasmoides gallisepticum
Protocol: as §1

[16] = test system: Mycoplasma gallisepticum 41313; test: MIC, conventional broth-dilution microtiter test; settings: Mycoplasmoides gallisepticum
Protocol: as §1

Mycoplasma gallisepticum = test: MIC, conventional broth-dilution microtiter test; settings: Mycoplasmoides gallisepticum
Protocol: as §1

Mycoplasma hyorhinis = test: MIC, conventional broth-dilution microtiter test
Protocol: as §1

[17] = test system: Pasteurella hemolytica 22C; test: MIC, conventional broth-dilution microtiter test; settings: broth-dilution microtiter; Pasteurella hemolytica 22C; read-out: MIC
Protocol: as §1

[18] = test system: Pasteurella hemolytica 23C; test: MIC, conventional broth-dilution microtiter test; settings: broth-dilution microtiter; Pasteurella hemolytica 23C; read-out: MIC
Protocol: as §1

[19] = test system: Pasteurella hemolytica 41D; test: MIC, conventional broth-dilution microtiter test; settings: broth-dilution microtiter; Pasteurella hemolytica 41D; read-out: MIC
Protocol: as §1

[20] = test system: Pasteurella multocida 17E; test: MIC, conventional broth-dilution microtiter test; settings: broth-dilution microtiter; Pasteurella multocida 17E, Bovine isolate; read-out: MIC
Protocol: as §1

[21] = test system: Pasteurella multocida 22A; test: MIC, conventional broth-dilution microtiter test; settings: broth-dilution microtiter; Pasteurella multocida 22A; read-out: MIC
Protocol: as §1

[22] = test system: Pasteurella multocida 40G; test: MIC, conventional broth-dilution microtiter test; settings: broth-dilution microtiter; Pasteurella multocida 40G; read-out: MIC
Protocol: as §1

[23] = test system: Pasteurella multocida 60A; test: MIC, conventional broth-dilution microtiter test; settings: broth-dilution microtiter; Pasteurella multocida 60A, Avian isolate; read-out: MIC
Protocol: as §1

[24] = test system: Pasteurella multocida 68C; test: MIC, conventional broth-dilution microtiter test; settings: broth-dilution microtiter; Pasteurella multocida 68C; read-out: MIC
Protocol: as §1

Staphylococcus aureus = test: MIC, conventional broth-dilution microtiter test
Protocol: as §1

Streptococcus sp. 80 = test: MIC, conventional broth-dilution microtiter test
Protocol: as §1

Mycoplasma synoviae = test: MIC, conventional broth-dilution microtiter test; settings: Mycoplasmopsis synoviae
Protocol: as §1

[25] = agar-dilution, Streptococcus pneumoniae Park I, read-out: MIC
[26] = agar-dilution, Streptococcus pyogenes C203, read-out: MIC
[27] = agar-dilution, Staphylococcus epidermidis EPI1, read-out: MIC
[28] = broth-dilution microtiter, Mycoplasma gallisepticum 34159, Resistant strain, read-out: MIC
[29] = broth-dilution microtiter, Mycoplasma gallisepticum 41313, Resistant strain, read-out: MIC
[30] = broth-dilution microtiter, Mycoplasma hyorhinis, read-out: MIC
[31] = broth-dilution microtiter, read-out: MIC
[32] = broth-dilution microtiter, Streptococcus sp. 80, read-out: MIC
[33] = broth-dilution microtiter, Mycoplasma gallisepticum, read-out: MIC
[34] = Staphylococcus epidermidis, EPI1

SMILES | MIC (Escherichia coli EC14) | MIC (Escherichia coli TEM) | MIC [1] | MIC [2] | MIC [4] | MIC [5] | MIC [7] | MIC [9] | MIC [10] | MIC [13] | MIC [15, 28] | MIC [16, 29] | MIC [17] | MIC [18] | MIC [19] | MIC [20] | MIC [21] | MIC [22] | MIC [23] | MIC [24] | also measured
CCC1OC(=O)CC(O)C(C)C(OC2OC(C)C(OC3CC(C)(O)C(O)C(C)O3)C(N(C)C)C2O)C(CCN2C(=O)c3ccccc3C2=O)CC(C)C(=O)C=CC(C)=CC1CO (centres unmarked) [Compound 17, 20-N-Phthalimido-20-deoxy-20-dihydro-DMT] | > 128 µg/mL | > 128 µg/mL | > 128 µg/mL | > 128 µg/mL | 64 µg/mL (≈ 73.3 µM) | > 128 µg/mL | > 128 µg/mL | > 128 µg/mL | > 128 µg/mL | 64 µg/mL (≈ 73.3 µM) | 50 µg/mL (≈ 57.3 µM) | 50 µg/mL (≈ 57.3 µM) | > 50 µg/mL | > 50 µg/mL | > 50 µg/mL | > 50 µg/mL | > 50 µg/mL | > 50 µg/mL | > 50 µg/mL | > 50 µg/mL | MIC ([3]; Staphylococcus aureus, V41): 64 µg/mL (≈ 73.3 µM); MIC [6, 25]: 16 µg/mL (≈ 18.3 µM); MIC [8, 26]: 128 µg/mL (≈ 147 µM); MIC ([11]; Staphylococcus aureus, X400): 64 µg/mL (≈ 73.3 µM); MIC [12]: 32 µg/mL (≈ 36.7 µM); MIC [14, 27]: 32 µg/mL (≈ 36.7 µM); MIC (Mycoplasma gallisepticum): 12.5 µg/mL (≈ 14.3 µM); MIC (Mycoplasma hyorhinis; [30]): 50 µg/mL (≈ 57.3 µM); MIC (Staphylococcus aureus; [31]): > 50 µg/mL; MIC (Streptococcus sp. 80; [32]): 50 µg/mL (≈ 57.3 µM)
CCC1OC(=O)CC(O)C(C)C(OC2OC(C)C(OC3CC(C)(O)C(O)C(C)O3)C(N(C)C)C2O)C(CCN2C(=O)c3ccccc3C2=O)CC(C)C(=O)C=CC(C)=CC1C (centres unmarked) [Compound 26, 20-N-Phthalimido-20-deoxy-20-dihydro-DMOT] | > 128 µg/mL | > 128 µg/mL | > 128 µg/mL | > 128 µg/mL | 64 µg/mL (≈ 74.7 µM) | 128 µg/mL (≈ 149 µM) | > 128 µg/mL | > 128 µg/mL | > 128 µg/mL | 64 µg/mL (≈ 74.7 µM) | 50 µg/mL (≈ 58.3 µM) | 50 µg/mL (≈ 58.3 µM) | > 50 µg/mL | > 50 µg/mL | > 50 µg/mL | > 50 µg/mL | > 50 µg/mL | > 50 µg/mL | > 50 µg/mL | > 50 µg/mL | MIC ([3]; Staphylococcus aureus, V41): 32 µg/mL (≈ 37.3 µM); MIC [6, 25]: 8 µg/mL (≈ 9.33 µM); MIC ([8]; Streptococcus pyogenes, C203): 64 µg/mL (≈ 74.7 µM); MIC ([11]; Staphylococcus aureus, X400): 64 µg/mL (≈ 74.7 µM); MIC [12]: 32 µg/mL (≈ 37.3 µM); MIC [14, 27]: 64 µg/mL (≈ 74.7 µM); MIC (Mycoplasma gallisepticum; [33]): 12.5 µg/mL (≈ 14.6 µM); MIC (Mycoplasma hyorhinis; [30]): 50 µg/mL (≈ 58.3 µM); MIC (Staphylococcus aureus; [31]): > 50 µg/mL; MIC (Streptococcus sp. 80; [32]): > 50 µg/mL
CCC1OC(=O)CC(O)C(C)C(OC2OC(C)C(O)C(N(C)C)C2O)C(CCN2C(=O)c3ccccc3C2=O)CC(C)C(=O)C=CC(C)=CC1CN1C(=O)c2ccccc2C1=O (centres unmarked) [Compound 31, 20,23-Di-N-Phthalimido-20,23-dideoxy-20-dihydro-OMT] | > 128 µg/mL | > 128 µg/mL | > 128 µg/mL | > 128 µg/mL | 4 µg/mL (≈ 4.66 µM) | 8 µg/mL (≈ 9.32 µM) | 16 µg/mL (≈ 18.6 µM) | > 128 µg/mL | > 128 µg/mL | 4 µg/mL (≈ 4.66 µM) | 25 µg/mL (≈ 29.1 µM) | 25 µg/mL (≈ 29.1 µM) | > 50 µg/mL | > 50 µg/mL | > 50 µg/mL | > 50 µg/mL | > 50 µg/mL | > 50 µg/mL | > 50 µg/mL | > 50 µg/mL | MIC ([3]; Staphylococcus aureus, V41): 4 µg/mL (≈ 4.66 µM); MIC ([6]; Streptococcus pneumoniae): 2 µg/mL (≈ 2.33 µM); MIC [8, 26]: 16 µg/mL (≈ 18.6 µM); MIC ([11]; agar-dilution, Staphylococcus aureus X400, Methicillin-resistant strain, read-out: MIC): 16 µg/mL (≈ 18.6 µM); MIC [14, 34]: 4 µg/mL (≈ 4.66 µM); MIC (Mycoplasma gallisepticum): 12.5 µg/mL (≈ 14.6 µM); MIC (Mycoplasma hyorhinis; Mycoplasma): 50 µg/mL (≈ 58.3 µM); MIC (Staphylococcus aureus): 12.5 µg/mL (≈ 14.6 µM); MIC (Streptococcus sp. 80; [32]): 12.5 µg/mL (≈ 14.6 µM)
CCC1OC(=O)CC(O)C(C)C(OC2OC(C)C(OC3CC(C)(O)C(O)C(C)O3)C(N(C)C)C2O)C(CCN2C(=O)c3ccccc3C2=O)CC(C)C(=O)C=CC(C)=CC1CN1C(=O)c2ccccc2C1=O (centres unmarked) [Compound 38, 20,23-Di-N-phthalimido-20,23-dideoxy-20-dihydro-DMT] | > 128 µg/mL | > 128 µg/mL | > 128 µg/mL | > 128 µg/mL | 64 µg/mL (≈ 63.9 µM) | > 128 µg/mL | > 128 µg/mL | > 128 µg/mL | > 128 µg/mL | 32 µg/mL (≈ 31.9 µM) | – | – | > 50 µg/mL | > 50 µg/mL | > 50 µg/mL | > 50 µg/mL | > 50 µg/mL | > 50 µg/mL | > 50 µg/mL | > 50 µg/mL | MIC ([3]; agar-dilution, Staphylococcus aureus V41, Penicillin-resistant strain, read-out: MIC): 16 µg/mL (≈ 16 µM); MIC [6, 25]: 16 µg/mL (≈ 16 µM); MIC [8, 26]: > 128 µg/mL; MIC ([11]; Staphylococcus aureus, X400): 64 µg/mL (≈ 63.9 µM); MIC [12]: 16 µg/mL (≈ 16 µM); MIC [14, 34]: 32 µg/mL (≈ 31.9 µM); MIC [15]; 34159: 50 µg/mL (≈ 49.9 µM); MIC [16]; 41313: 50 µg/mL (≈ 49.9 µM); MIC (Mycoplasma gallisepticum): 50 µg/mL (≈ 49.9 µM); MIC (Mycoplasma hyorhinis; Mycoplasma): 50 µg/mL (≈ 49.9 µM); MIC (Staphylococcus aureus; [31]): 25 µg/mL (≈ 24.9 µM); MIC (Streptococcus sp. 80; Streptococcus, SP.80): 50 µg/mL (≈ 49.9 µM)
CCC1CC(C)C(=O)C=CC(C)=CC(CN2CCCCCCC2)C(CC)OC(=O)CC(O)C(C)C1OC1OC(C)C(OC(C)=O)C(N(C)C)C1OC(C)=O (centres unmarked) [Compound 57] | – | – | – | – | – | – | – | – | – | – | 50 µg/mL (≈ 65.5 µM) | 50 µg/mL (≈ 65.5 µM) | 0.78 µg/mL (≈ 1.02 µM) | 1.56 µg/mL (≈ 2.04 µM) | 0.78 µg/mL (≈ 1.02 µM) | 1.56 µg/mL (≈ 2.04 µM) | 1.56 µg/mL (≈ 2.04 µM) | 1.56 µg/mL (≈ 2.04 µM) | 1.56 µg/mL (≈ 2.04 µM) | 0.78 µg/mL (≈ 1.02 µM) | MIC (Mycoplasma gallisepticum; [33]): 0.78 µg/mL (≈ 1.02 µM); MIC (Mycoplasma hyorhinis; [30]): > 50 µg/mL; MIC (Mycoplasma synoviae): 12.5 µg/mL (≈ 16.4 µM); MIC (Staphylococcus aureus; [31]): 0.39 µg/mL (≈ 0.511 µM); MIC (Streptococcus sp. 80; [32]): 0.195 µg/mL (≈ 0.256 µM)
